Measurements published in EP0975634B1, “FUNGICIDAL TRIFLUOROPHENYL-TRIAZOLOPYRIMIDINES” (BASF AKTIENGESELLSCHAFT, priority 1997, dated 1998).
≈ marks a conversion by molar mass, not a printed value. Where two headings read alike, the source gives them in different places.

Assays:
[1] = test system: Botrytis cinerea; assay: microbe, parasite or virus in culture; type: cell-based; conditions: for MIC: Botrytis cinerea, read-out: MIC (Minimum Inhibitory Concentration) BOTRCI
[2] = test system: Leptosphaeria nodorum; assay: Minimum Inhibitory Concentration, serial dilution test; type: cell-based; conditions: for MIC: Parastagonospora nodorum, read-out: MIC (Minimum Inhibitory Concentration) LEPTNO
[3] = test system: Magnaporthe grisea f. sp. Oryzae; assay: microbe, parasite or virus in culture; type: cell-based; conditions: for MIC: Pyricularia oryzae, read-out: MIC (Minimum Inhibitory Concentration) PYRIOR; for MIC (Minimum Inhibitory Concentration) PYRIOR: total inhibition of mycelial growth, V8 nutrient solution, 6-12 days incubation at 18-25°C, visual inspection
[4] = test system: Phytophthora infestans; assay: microbe, parasite or virus in culture; type: cell-based; conditions: for MIC: Phytophthora infestans, read-out: MIC (Minimum Inhibitory Concentration) PHYTIN; for MIC (Minimum Inhibitory Concentration) PHYTIN: total inhibition of mycelial growth, V8 nutrient solution, 6-12 days incubation at 18-25°C, visual inspection
[5] = test system: Pyrenophora teres; assay: Minimum Inhibitory Concentration, serial dilution test; type: cell-based; conditions: for MIC: Pyrenophora teres, read-out: MIC (Minimum Inhibitory Concentration) PYRNTE
[6] = test system: Uncinula necator; assay: Control of powdery mildew on grapes, prophylactic greenhouse test; type: in vivo; conditions: grape cultivar Müller-Thurgau, application 3 days before infection, evaluation 21 days after infection; for activity at 3.13 ppm / activity at 6.25 ppm / activity at 12.5 ppm / activity at 25 ppm: Erysiphe necator, read-out: % activity (ABBOTT formula)
[7] = test system: Altemaria solani; assay: organism not typed; type: cell-based; conditions: for MIC: read-out: MIC (Minimum Inhibitory Concentration) ALTESO
[8] = test system: Rhizoctonia solani; assay: Minimum Inhibitory Concentration, serial dilution test; type: cell-based; conditions: for MIC: Rhizoctonia solani, read-out: MIC (Minimum Inhibitory Concentration) RHISZO
[9] = total inhibition of mycelial growth, V8 nutrient solution, 6-12 days incubation at 18-25°C, visual inspection

Row | SMILES | MIC [1] | MIC [2, 9] | MIC [3] | MIC [5, 9] | activity at 3.13 ppm ([6]; Concentration 3.13 ppm) | activity at 6.25 ppm ([6]; Concentration 6.25 ppm) | activity at 12.5 ppm ([6]; Concentration 12.50 ppm) | activity at 25 ppm ([6]; Concentration 25.00 ppm) | MIC [7] | MIC (Minimum Inhibitory Concentration) BOTRCI [1] | MIC (Minimum Inhibitory Concentration) PYRIOR [3] | MIC (Minimum Inhibitory Concentration) PHYTIN [4] | MIC (Minimum Inhibitory Concentration) ALTESO [7] | also measured
1 | CC1CCN(c2c(-c3c(F)cc(F)cc3F)c(Cl)nc3ncnn23)CC1 [Example 2, 5-chloro-7-(4-methylpiperidin-1-yl)-6-(2,4,6-trifluorophenyl)-[1,2,4]triazolo[1,5-a]pyrimidine] | 100 µg/mL (≈ 0.262 mM) | 6250 µg/mL (≈ 16.4 mM) | 40 µg/mL (≈ 0.105 mM) | 200 µg/mL (≈ 0.524 mM) | 100% | 100% | 100% | 100% | 40 µg/mL (≈ 0.105 mM) | – | – | – | – | MIC [4]: 100000 µg/mL (≈ 262 mM)
2 | OC1CCCN(c2c(-c3c(F)cc(F)cc3F)c(Cl)nc3ncnn23)C1 (stereo not shown) [Example 41, 5-chloro-7-(3-hydroxypiperidin-1-yl)-6-(2,4,6-trifluorophenyl)-[1,2,4]triazolo[1,5-a]-pyrimidine] | 100000 µg/mL (≈ 261 mM) | 50000 µg/mL (≈ 130 mM) | 12500 µg/mL (≈ 32.6 mM) | 25000 µg/mL (≈ 65.1 mM) | – | – | – | – | 6250 µg/mL (≈ 16.3 mM) | – | – | – | – | –
3 | Fc1cc(F)c(-c2c(Cl)nc3ncnn3c2NC(c2ccccc2)C(F)(F)F)c(F)c1 (stereo not shown) [Example 52, 5-chloro-7-[N-(1-phenyl-2,2,2-trifluoroethyl)-amino]-6-(2,4,6-trifluorophenyl)-[1,2,4]triazolo[1,5-a]pyrimidine] | 12500 µg/mL (≈ 27.3 mM) | – | 1560 µg/mL (≈ 3.41 mM) | 3130 µg/mL (≈ 6.84 mM) | – | – | – | – | 3130 µg/mL (≈ 6.84 mM) | – | – | – | – | –
4 | CCCC(Nc1c(-c2c(F)cc(F)cc2F)c(Cl)nc2ncnn12)C(C)C (stereo not shown) [Example 57, 5-chloro-7-[3-(2-methylhexyl)-amino]-6-(2,4,6-trifluorophenyl)-[1,2,4]triazolo[5-a]-pyrimidine] | – | – | – | – | – | – | – | – | – | 390 µg/mL (≈ 0.98 mM) | 40 µg/mL (≈ 0.101 mM) | 110000 µg/mL (≈ 276 mM) | 200 µg/mL (≈ 0.503 mM) | MIC (Minimum Inhibitory Concentration) LEPTNO [2, 9]: 780 µg/mL (≈ 1.96 mM); MIC (Minimum Inhibitory Concentration) PYRNTE [5, 9]: 3130 µg/mL (≈ 7.87 mM); MIC (Minimum Inhibitory Concentration) RHISZO [8, 9]: 110000 µg/mL (≈ 276 mM)
5 | OC(c1ccc(Cl)cc1)(c1cncnc1)c1ccccc1Cl (stereo not shown) [Fenarimol, reference compound] | – | – | – | – | 31% | 75% | 95% | 99% | – | – | – | – | – | –
6 | CC(Nc1c(-c2c(F)cc(F)cc2F)c(Cl)nc2ncnn12)C(F)(F)F (stereo not shown) [Example 28, 5-chloro-7-[N-2-(1,1,1-trifluoropropyl)-amino]-6-(2,4,6-trifluorophenyl)-[1,2,4]triazolo[1,5-a]pyrimidine] | – | – | – | – | – | – | – | – | – | 3130 µg/mL (≈ 7.91 mM) | 780 µg/mL (≈ 1.97 mM) | 110000 µg/mL (≈ 278 mM) | 780 µg/mL (≈ 1.97 mM) | MIC (Minimum Inhibitory Concentration) LEPTNO [2, 9]: 3130 µg/mL (≈ 7.91 mM); MIC (Minimum Inhibitory Concentration) PYRNTE [5, 9]: 6250 µg/mL (≈ 15.8 mM); % activity (ABBOTT formula) ([6]; Concentration 3.13 ppm): 97%; % activity (ABBOTT formula) ([6]; Concentration 6.25 ppm): 100%; % activity (ABBOTT formula) ([6]; Concentration 12.50 ppm): 100%; % activity (ABBOTT formula) ([6]; Concentration 25.00 ppm): 100%; MIC (Minimum Inhibitory Concentration) RHISZO [8, 9]: 3130 µg/mL (≈ 7.91 mM)
7 | C[Si](C)(C)CN(CC(F)(F)F)c1c(-c2c(F)cc(F)cc2F)c(Cl)nc2ncnn12 [Example 40, 5-chloro-7-[N-(2.2,2-trifluoroethyl)-N-(trimethylsiiylmethyl)-amino]-6-(2.4,6-trifiuorophenyl)-[1,2,4]triazolo[1,5-a]pyrimidine] | – | – | – | – | – | – | – | – | – | 6250 µg/mL (≈ 13.4 mM) | 1560 µg/mL (≈ 3.33 mM) | 25000 µg/mL (≈ 53.4 mM) | 780 µg/mL (≈ 1.67 mM) | MIC (Minimum Inhibitory Concentration) LEPTNO [2]: 110000 µg/mL (≈ 235 mM); MIC (Minimum Inhibitory Concentration) PYRNTE [5]: 25000 µg/mL (≈ 53.4 mM); MIC (Minimum Inhibitory Concentration) RHISZO [8]: 110000 µg/mL (≈ 235 mM)
8 | CC1CCN(c2c(-c3c(F)cccc3Cl)c(Cl)nc3ncnn23)CC1 [standard^1, 5-chloro-7-(4-methylpiperidin-1-yl)-6-(2-chloro-6-fluorophenyl)-[1,2,4]triazolo[1,5-a]pyrimidine, reference compound] | – | – | – | – | 31% | 42% | 44% | 73% | – | – | – | – | – | –
9 | CC(C)CN(CC(F)(F)F)c1c(-c2c(F)cc(F)cc2F)c(Cl)nc2ncnn12 [Example 26, 5-chloro-7-(N-2-methylpropyl-N-2,2,2-trifluoroethylamino)-6-(2,4,6-trifluorophenyl)-[1,2,4]triazolo[1,5-a]pyrimidine] | 200 µg/mL (≈ 0.457 mM) | 390 µg/mL (≈ 0.891 mM) | 40 µg/mL (≈ 0.0914 mM) | – | 0% | 14% | 22% | 27% | 200 µg/mL (≈ 0.457 mM) | – | – | – | – | MIC [8, 9]: 3130 µg/mL (≈ 7.15 mM)
10 | CCCC(Cn1cncn1)c1ccc(Cl)cc1Cl (stereo not shown) [Penconazole, reference compound] | – | – | – | – | 11% | 17% | 31% | 58% | – | – | – | – | – | –
11 | Fc1cc(F)c(-c2c(Cl)nc3ncnn3c2NCC(F)(F)F)c(F)c1 [Example 12, 5-chloro-7-(N-2,2,2-trifluoroethylamino)-6-(2,4,6-trifluorophenyl)-[1,2,4]triazolo[1,5-a]pyrimidine] | 1560 µg/mL (≈ 4.09 mM) | 6250 µg/mL (≈ 16.4 mM) | 200 µg/mL (≈ 0.524 mM) | 6250 µg/mL (≈ 16.4 mM) | 97% | 100% | 100% | 100% | 1560 µg/mL (≈ 4.09 mM) | – | – | – | – | MIC [4]: 25000 µg/mL (≈ 65.5 mM); MIC [8, 9]: 6250 µg/mL (≈ 16.4 mM)
12 | Fc1cc(F)c(-c2c(Cl)nc3ncnn3c2NC2CC3CCC2C3)c(F)c1 (stereo not shown) [Example 11, 5-chloro-7-(N-norborn-2-ylamino)-6-(2,4,6-trifluorophenyl)-[1,2,4]triazolo[1,5-a]pyrimidine] | – | – | – | – | 64% | 93% | 100% | 100% | – | – | – | – | – | –
13 | CC(C)CCN(C)c1c(-c2c(F)cc(F)cc2F)c(Cl)nc2ncnn12 [Example 54, 5-chloro-7-[N-(3-methylbutyl)-N-methylamino]-6-(2,4,6-trifluorophenyl)-[1,2,4]triazolo[1,5-a]pyrimidine] | 3130 µg/mL (≈ 8.16 mM) | 12500 µg/mL (≈ 32.6 mM) | 40 µg/mL (≈ 0.104 mM) | 3130 µg/mL (≈ 8.16 mM) | – | – | – | – | 780 µg/mL (≈ 2.03 mM) | – | – | – | – | –
14 | CN(CC(F)(F)F)c1c(-c2c(F)cc(F)cc2F)c(Cl)nc2ncnn12 [Example 27, 5-chloro-7-(N-methyl-N-2,2.2-trifluoroethylamino)-6-(2,4,6-trifluorophenyl)-[1,2,4]triazolo[1,5-a]-pyrimidine] | – | – | – | – | – | – | – | – | – | 3130 µg/mL (≈ 7.91 mM) | 100 µg/mL (≈ 0.253 mM) | 110000 µg/mL (≈ 278 mM) | 780 µg/mL (≈ 1.97 mM) | MIC (Minimum Inhibitory Concentration) LEPTNO [2, 9]: 50000 µg/mL (≈ 126 mM); MIC (Minimum Inhibitory Concentration) PYRNTE [5, 9]: 12500 µg/mL (≈ 31.6 mM); % activity (ABBOTT formula) ([6]; Concentration 3.13 ppm): 0%; % activity (ABBOTT formula) ([6]; Concentration 6.25 ppm): 0%; % activity (ABBOTT formula) ([6]; Concentration 12.50 ppm): 11%; % activity (ABBOTT formula) ([6]; Concentration 25.00 ppm): 17%; MIC (Minimum Inhibitory Concentration) RHISZO [8, 9]: 1560 µg/mL (≈ 3.94 mM)
15 | CC(C)C(Nc1c(-c2c(F)cc(F)cc2F)c(Cl)nc2ncnn12)C(F)(F)F (stereo not shown) [Example 55, 5-chloro-7-[N-2-(3-methyl-1,1,1-trifluorobutyl)-amino]-6-(2,4,6-trifluorophenyl)-[1,2,4]triazolo[1,5-a]-pyrimidine] | – | – | – | – | – | – | – | – | – | 1560 µg/mL (≈ 3.68 mM) | 40 µg/mL (≈ 0.0944 mM) | 100000 µg/mL (≈ 236 mM) | 390 µg/mL (≈ 0.92 mM) | MIC (Minimum Inhibitory Concentration) LEPTNO [2, 9]: 1560 µg/mL (≈ 3.68 mM); MIC (Minimum Inhibitory Concentration) PYRNTE [5, 9]: 6250 µg/mL (≈ 14.7 mM); MIC (Minimum Inhibitory Concentration) RHISZO [8, 9]: 12500 µg/mL (≈ 29.5 mM)
